The source of these data is patent US20220211691A1, “TREATMENT OF DRY EYE DISEASE” (Aldeyra Therapeutics, Inc., priority 2021, published 2022).

What all share (type): in vivo, human
The nature of data set [1]: Safety of topical ocular reproxalap across clinical trials. The protocol:
• Day 1 Schirmer's Test results is based on improvement after a single dose; all other Day 1 assessments were performed over 24 hours of QID dosing.

The subject of data set [2] is subjects with dry eye disease. The experiment in a line: CAE clinical study, initial cohort, Day 2 dry eye chamber. The protocol: The objective of the study is to evaluate the efficacy of reproxalap, as assessed by tear reactive aldehyde species (RASP) levels, after single and multiple doses in subjects with dry eye disease. The efficacy of reproxalap will also be assessed by tear RASP levels, conjunctival redness, Schirmer's Test, and dry eye symptoms after dosing immediately prior to and during exposure to the Controlled Adverse Environment (CAE®) over 2 hours, in subjects with dry eye disease. CAE® chambers allow standardization of variables, such as temperature, humidity, airflow, and visual tasking (see Calonge et al., Current Eye Res., 2018, 43(4):445-450; see also Ousler, III et al., Ophthalmol Ther., 2017, 6(2): 263-276) Dosage/Dose Regimen. A Reproxalap solution (0.25% w/v or 0.1% w/v) is administered topically to both eyes. The control is a Vehicle Control Solution. The test article is administered QID on Day 1 (Visit 2). On Day 2 (Visit 3), test article is administered once 2 or 5 minutes immediately prior to the CAE®, once 45 minutes after initiation of the CAE®, and once at CAE® exit. The primary endpoint is the change in levels of reactive aldehyde species (RASP) in tears. Secondary endpoints include the following: • Visual analog scale eye dryness score assessed over 90 minutes in CAE®. • Ora Calibra Ocular Discomfort Scale assessed over 90 minutes in CAE®. • Conjunctival redness assessed at over 90 minutes via digital photography in the CAE® (Key Secondary Sign Endpoint). • Schirmer's Test assessed 10 minutes after dosing. • Post-CAE® RASP change from baseline. Secondary endpoints of conjunctival redness and symptoms in the CAE® is assessed via mixed effect model for repeated measures (MMRM), with baseline score as a covariate, and time and test article group as factors. In one of the CAE® studies, one dose is given 2 min prior to chamber entry. Another dose is administered 45 min after chamber entry. In some instances, subjects receive one day prior to chamber entry. Thus, some subjects receive: one dose on day prior to, one dose immediately before, and one dose 45 min after entry into a 90 min dry eye chamber with minimal humidity, high airflow, and forced visual tasking. In some instances, the subjects are given a dose at exit of the CAE®.

Data set [3] relates to malondialdehyde (MDA) adducts in tears. The data set can be described thus: MDA adduct competitive ELISA of tears, Phase 2a clinical study. The conditions noted are these: 28 days / 4-week treatment, all treatment groups pooled. The text has this: The study was to assess levels of malondialdehyde (MDA) adducts in tears collected from subjects with dry eye disease enrolled in a Phase 2a, randomized, double-masked, clinical study to assess the safety, tolerability, and pharmacodynamic activity of ADX-102 ophthalmic solution in subjects with dry eye diseases, also referred to herein as dry eye syndrome (DES).
Tears were collected during Visit 1, prior to treatment, and during Visit 3, following four weeks of treatment. Treatment groups consisted of ADX-102 Ophthalmic Solution (0.5%), ADX-102 Ophthalmic Solution (0.1%), and ADX-102 Ophthalmic Lipid Solution (0.5%). […]
The assay is a competitive ELISA. […] The plate is read in a microplate reader at 450 nm. The assay OD reading decreases with increasing MDA adducts in the samples, as the adsorbed MDA competes for binding to the MDA antibody with MDA adducts in the test sample. […]
DES Study Samples. Based on the results of the pilot assay, a 1:60 dilution was determined to maximize the likelihood of the OD values falling within the linear portion of the standard curve, and thus provide the most accurate results. All tear samples from subjects (0.5% ADX-102 Ophthalmic Solution) and (0.1% ADX-102 Ophthalmic Solution) were analyzed, but results from some tear samples were excluded from the data analysis due to contamination with ocular staining dye in the Visit 3 samples. […]

The test system of data set [4] is subjects with dry eye disease. The experiment in a line: CAE clinical study, initial cohort, Day 1 dry eye assessments. The following applies: N = 12; for Schirmer's Test, Change From Baseline: Day 1, after a single dose, vehicle +1.3, P-Value 0.30; for OD4S: Dryness (0-5), Change From Baseline / OD4S: Grittiness (0-5), Change From Baseline: vehicle +0.1, P-Value 0.006; for OD4S: Discomfort (0-5), Change From Baseline / VAS Dryness (0-100), Change From Baseline: P-Value 0.003; for VAS Dryness (0-100), Change From Baseline: vehicle +2. On the procedure:
The objective of the study is to evaluate the efficacy of reproxalap, as assessed by tear reactive aldehyde species (RASP) levels, after single and multiple doses in subjects with dry eye disease. The efficacy of reproxalap will also be assessed by tear RASP levels, conjunctival redness, Schirmer's Test, and dry eye symptoms after dosing immediately prior to and during exposure to the Controlled Adverse Environment (CAE®) over 2 hours, in subjects with dry eye disease. CAE® chambers allow standardization of variables, such as temperature, humidity, airflow, and visual tasking (see Calonge et al., Current Eye Res., 2018, 43(4):445-450; see also Ousler, III et al., Ophthalmol Ther., 2017, 6(2): 263-276) Dosage/Dose Regimen. A Reproxalap solution (0.25% w/v or 0.1% w/v) is administered topically to both eyes. The control is a Vehicle Control Solution. The test article is administered QID on Day 1 (Visit 2). On Day 2 (Visit 3), test article is administered once 2 or 5 minutes immediately prior to the CAE®, once 45 minutes after initiation of the CAE®, and once at CAE® exit. The primary endpoint is the change in levels of reactive aldehyde species (RASP) in tears. Secondary endpoints include the following: • Visual analog scale eye dryness score assessed over 90 minutes in CAE®. • Ora Calibra Ocular Discomfort Scale assessed over 90 minutes in CAE®. • Conjunctival redness assessed at over 90 minutes via digital photography in the CAE® (Key Secondary Sign Endpoint). • Schirmer's Test assessed 10 minutes after dosing. • Post-CAE® RASP change from baseline. General Statistical Methods and Types of Analyses. The primary endpoint and secondary endpoints of Schirmer's Test and post-CAE® RASP is assessed via analysis of covariance (ANCOVA), with baseline score as a covariate. Initial Cohort of the trial will enroll twenty subject who meet the inclusion criteria. The Initial Cohort phase will be limited to Visit 1 (Screening), Visit 2 (Day 1), and Visit 3 (Day 2). At Day 1, evaluations include Dry Eye symptoms, Schirmer's test, and tear RASP levels. At Day 2 (Chamber test), evaluations include Dry Eye symptoms, Ocular Redness, and tear RASP levels. • Day 1 Schirmer's Test results is based on improvement after a single dose; all other Day 1 assessments were performed over 24 hours of QID dosing.

[5] abbreviates: Day 1, over 24 hours of QID dosing.
Where [6] appears, read: Day 1, over 24 hours of QID dosing, listed as reproxalap.

For the compound `CC(C)(O)c1nc2ccc(Cl)cc2cc1N` [Reproxalap, reproxalap], the “most commonly reported adverse event in clinical trials” value in data set [1] (human, in vivo) is “mild instillation site irritation”. Besides, the “safety in clinical trials” value in data set [1] (studied in over 1,100 patients) is recorded as “no observed safety concerns”. In addition, the “ocular redness versus vehicle” value in data set [2] (Day 2, dry eye chamber, p=0.03) is reported as “statistically significant improvement over vehicle”. The “ocular discomfort score versus vehicle” value in data set [2] (Day 2, over all time points in aggregate in the dry eye chamber, p<0.0001) is “statistically superior to vehicle”. The “visual analog scale (VAS) ocular dryness versus vehicle” value in data set [2] (Day 2, over all time points in aggregate in the dry eye chamber, p=0.001) is listed as “statistically superior to vehicle”. In data set [2] (dry eye chamber), the “time to improvement in ocular symptoms and redness following dosing” value is recorded as “within minutes”. Besides, the “tear MDA adduct level after treatment relative to baseline, pooled groups” value in data set [3] is “statistically lower”. Besides, the “Schirmer's Test, Change From Baseline” value is “+3.4 mm” in data set [4] and “directionally in favor of reproxalap over vehicle” in data set [4] (listed as reproxalap). Moreover, the “OD4S: Dryness (0-5), Change From Baseline” value in data set [4] (setting [5]) is −1.2; in data set [4] (setting [6]) it was “statistically superior to vehicle”. The “OD4S: Grittiness (0-5), Change From Baseline” value in data set [4] (setting [5]) is given as −1.1; in data set [4] (setting [6]) it was “statistically superior to vehicle”. Also, the “OD4S: Discomfort (0-5), Change From Baseline” value is given as −0.7 in data set [4] (Day 1, over 24 hours of QID dosing, vehicle +0.4) and “statistically superior to vehicle” in data set [4] (Day 1, over 24 hours of QID dosing, vehicle +0.4, listed as reproxalap). The “Ocular Discomfort Scale (0-4), Change From Baseline” value in data set [4] (Day 1, over 24 hours of QID dosing, vehicle +0.4, P-Value 0.07) is −0.7. Moreover, the “OD4S: Sting (0-5), Change From Baseline” value in data set [4] (Day 1, over 24 hours of QID dosing, vehicle +0.4, P-Value 0.23) is given as −0.1. In data set [4] (Day 1, over 24 hours of QID dosing, vehicle +0.8, P-Value 0.07), the “OD4S: Burn (0-5), Change From Baseline” value was −0.1. Also, the “VAS Dryness (0-100), Change From Baseline” value in data set [4] (setting [5]) was −26; in data set [4] (setting [6]), “statistically superior to vehicle”.
